What was measured:
[1] = system: hippocampal kindled seizures; experiment: Rat Hippocampal Kindling Test (Interruption of Kindled State); format: in vivo
Experimental: In the present rapid hippocampal kindling model adult male Sprague-Dawley rats (300-400 g) were surgically implanted with bipolar electrodes placed in the hippocampus. […] One week later, the rats received 2-3 supra-threshold stimulations delivered every 30 min before treatment with test compound, to ensure stability of the behavioral seizure stage and after-discharge duration. Fifteen minutes after the last stimulation, a single dose of vehicle or test compound was administered i.p. (intraperitoneally). After 15 min, each rat was then stimulated every 30 min for 3 to 4 h. After each stimulation, individual seizure scores and after-discharge durations were recorded. The group mean±SEM were calculated for each parameter. Eight rats per dose and a minimum of four doses were used to establish an ED50 value. Efficacy was measured as the ability of a compound to modify the seizure score (severity of spread) and after-discharge duration (ADD; excitability) of the generalized seizures.
Thus, according to the theories presented in current literature (Ghaemi, S. N., Boiman, E. E., and Goodwin, F. K., Soc. of Bio. Psychiatry, (1999), vol. 45, pp 137-144; Stoll, A. L., and Severus, W. E., Harvard Rev. Psychiatry, July/August (1996), Vol. 4, No. 2, pp 77-89) a decrease in seizure score and/or ADD may also be predictive of the ability of a test compound to treat the cycling associated with bipolar disorder.

[2] = system: dominant rats; experiment: Dominant-Submissive Relations (DSR) assay: Reduction of Dominant Behavior Model (RDBM) of mania; format: in vivo, rat
Experimental: The DSR assay is divided into two models: Reduction of Dominant Behavior Model (RDBM) of mania and Reduction of Submissive Behavior Model (RSBM) of depression. The RDBM, wherein the dominant animals are treated with test compound, is predictive of the ability of the test compound to treat mania. The RSBM, wherein the submissive animals are treated with test compound, is predictive of the ability of the test compound to treat depression.
Male Sprague Dawley rats (140 to 160 g) from Charles River Laboratories Wilmington, Mass. were used in this assay. Shipments of rats were received at two-week intervals. Each shipment went through five-day quarantine, one-week acclimation period, and one-week selection process, followed by five-weeks of drug or vehicle treatment to those pairs selected.
Rats were housed four per cage. Access to food was restricted to one hour per day after testing on Monday through Thursday. After testing on Friday, rats had free access to food until being fasted again on Sunday. At no time were the rats deprived of water. The food deprivation periods used had little effect on weight gain as the average weight of rats was about 300 g at the end of the study. At the conclusion of experiment rats were sacrificed by decapitation, the trunk blood and brains were collected for in vitro experiments and drug concentration measurements.
The basic testing apparatus consisted of two chambers connected with a tunnel only large enough to allow one rat to pass through at a time. On the floor, at the mid-point of the tunnel was a container of sweetened milk. This basic apparatus was replicated, so that a total of four pairs of rats can be video tracked simultaneously. The camera can distinguish rats marked by different colors. Thus, the rats' heads were colored for the purpose of video tracking, red in one cage and yellow in the other cage. Only one animal at a time can have comfortable access to the feeder, but both animals can drink milk during the five-minute daily session. During the five-minute daily sessions, time spent in the feeder zone by each rat was recorded by the video tracking software and saved into a text file.
The test began with a random assignment of rats into pairs. Each member of a pair was placed in an opposite chamber of the testing apparatus. The time spent in the feeder zone by each animal was recorded. During the first week (five days) of testing the animals habituate to the new environment. Dominance was assigned to the animal with the highest score during the second week of testing if three criteria were achieved. First, there must have been a significant difference (two-tailed t-test, P<0.05) between the average daily drinking scores of both animals. Second, the dominant animal score must have been at least 25% greater than the submissive animal's score. Finally, there must have been no “reversals” during the pair selection week where the putative submissive rat out-scored its dominant partner on isolated occasions. Ideally there were minimal reversals during the acclimation week as well. About twenty-five to thirty-three percent of the initial animal pairs achieved these criteria and only these pairs were continued in the study.
Significant differences between time spent on the feeder by dominant and submissive rats were determined by ANOVA using GraphPad Prism software (GraphPad Software, Inc. San Diego, Calif.) followed by a two-tailed t-test (P<0.05). Comparisons were made between treatment groups using normalized dominance level values in paired animals. The dominance level is a value that measures social relation between paired subjects. Dominance level (DL)=FTD−FTS where FTD is the feeder time of dominant rats and FTS is the feeder time of submissive rats. The normalization was conducted according to the formula: Dominance Level(week n in %)=(Dominance Level(week n))/(Dominance Level(week 2) […]

[3] = system: LTG-resistant amygdala kindled seizures; experiment: Lamotrigine Resistant Amygdala Kindled Rat Model (Interruption of Kindled State); format: in vivo; settings: 75 mg/kg i.p.
Experimental: Amygdala kindling is less severe than hippocampal kindling, such that many AEDs are effective against amygdala kindled seizures, but are ineffective against hippocampal kindled seizures. […] Fifteen minutes after the last stimulation, a single dose of vehicle or test compound was administered i.p. After 15 min, each rat was then stimulated every 30 min for 3 to 4 h. After each stimulation, individual seizure scores and after-discharge durations were recorded. The group mean±SEM was calculated for each parameter.

[4] = Median toxic dose (TD50) / toxic doses of Compound #8 and reference drugs; settings: Sprague-Dawley, rat, in vivo, ip
[5] = system: amygdala kindled seizures; experiment: Amygdala Kindling Assay (Kindling Prevention); format: in vivo, rat

SMILES: NS(=O)(=O)NC[C@H]1COc2cc(Cl)ccc2O1 [Compound #8, (2S)-(−)-N-(6-Chloro-2,3-dihydro-benzo[1,4]dioxin-2-ylmethyl)-sulfamide]
- rats with significant reduction in global seizure activity (score <3) ([1]; after treatment i.p.): 6 out of 8
- rats with seizure scores significantly reduced from 5 to 1 ([1]; i.p., p=0.0003): 4 out of 8
- effect on the ADD (after-discharge duration) ([1]; i.p., p=0.07): no statistically significant effect
- AOT50 compared with lithium ([2]; 0.05 mg/kg and 0.5 mg/kg, non-linear regression fit of normalized daily DL values): significantly shorter from that of lithium
- first day of consistent lack of statistical significance between feeder time of dominant and submissive rats (activity onset time) ([2]; 0.05 mg/kg p.o. QD): 3 days
- first day of consistent lack of statistical significance between feeder time of dominant and submissive rats (activity onset time) ([2]; 0.5 mg/kg p.o. QD): 4 days
- dominance level (DL) values vs vehicle ([2]; 0.5 mg/kg p.o. QD, 5 weeks, strongest effect): significant difference in dominance level (DL) values between vehicle and compound treated rats starting in the second week
- first day of consistent lack of statistical significance between feeder time of dominant and submissive rats (activity onset time) ([2]; 2.5 mg/kg p.o. QD): 10 days
- dominance level (DL) response ([2]; 2.5 mg/kg, 5.0 mg/kg and 50.0 mg/kg p.o., compared with 0.5 mg/kg dose (not significantly different)): weaker response
- first day of consistent lack of statistical significance between feeder time of dominant and submissive rats (activity onset time) ([2]; 5.0 mg/kg p.o. QD): 11 days
- first day of consistent lack of statistical significance between feeder time of dominant and submissive rats (activity onset time) ([2]; 50.0 mg/kg p.o. QD): 3 days
- ED50 ([2]; Rattus norvegicus, po, p.o. QD, calculated): 0.03 ± 0.004 mg/kg
- difference between dominant and submissive rats lost ([2]; dominant rats treated p.o. QD at 0.05 mg/kg, 0.5 mg/kg and 50.0 mg/kg): lost after the first week of treatment
- difference between dominant and submissive rats lost ([2]; dominant rats treated p.o. QD at 2.5 mg/kg and 5.0 mg/kg): after the second week of treatment
- dominant behavior ([2]; overall result of the assay): reduced dominant behavior
- Emax in the RDBM ([2]; p.o. QD, calculated): 116.4±2.3%
- permissiveness of the treated dominant rats ([2]; treated dominant rats permitted submissive partners to increase time on the feeder): observed to increase
- after-discharge duration reduced [3]: 86%
- rats exhibiting ataxia and sedation ([3]; n=9): Four of the nine
- rats protected ([3]; n=9): Eight out of nine
- after-discharge duration after treatment ([3]; from 73 sec): 10 s
- seizure score after treatment ([3]; reduced from a 5): 0.8
- TD50 [4]: ~100 mg/kg
- acquisition of kindling ([5]; 75 mg/kg i.p.): prevented the acquisition of the full generalized kindled seizure
- seizure score at the conclusion of the drug- and stimulus-free period ([5]; 75 mg/kg i.p. during kindling acquisition, Racine scale, vehicle 4.6±0.24): 1.4±0.40
- after-discharge (AD) duration vs vehicle ([5]; 75 mg/kg i.p., kindling acquisition phase): No statistical difference between treatment groups

— patent US8937096B2, “Use of benzo-fused heterocyle sulfamide derivatives for the treatment of mania and bipolar disorder” (priority 2005, dated 2015)
